Measured values: PMC12567398, “New Assay Systems to Characterize the Broad-Spectrum Antiherpesviral and Non-Herpesviral Activity of Cyclin-Dependent Kinase (CDK) 8 Inhibitors” (Pharmaceuticals, 2025)
Read-outs that look alike come from different tables or passages of the source.

Experiments:
MCMV = system: MCMV; set-up: method as in ref 35, 38 (a number printed in a supplementary file, which may have a reference list of its own: not looked up in the article's list); settings: Table S1; read-out: antiviral EC50, MCMV; cited from earlier work
[1] = system: Epstein–Barr virus P3HR-1; test: EBV lytic assay in TPA-induced P3HR-1 cells, qPCR; assay type: cell-based
HSV-1 = system: HSV-1; set-up: method as in ref 35, 38 (a number printed in a supplementary file, which may have a reference list of its own: not looked up in the article's list); settings: Table S1; read-out: antiviral EC50, HSV-1; cited from earlier work
EHV-1-GFP = EHV-1-GFP antiviral assay, GFP fluorometry; assay type: cell-based, equine herpesvirus 1
HHV-6A-GFP = test: HHV-6A plaque reduction assay in HFFs
GPCMV = system: GPCMV; set-up: method as in ref 35, 38 (a number printed in a supplementary file, which may have a reference list of its own: not looked up in the article's list); settings: Table S1; read-out: antiviral EC50, GPCMV; cited from earlier work
HAdV = system: HAdV; set-up: method as in ref 35, 38 (a number printed in a supplementary file, which may have a reference list of its own: not looked up in the article's list); settings: Table S1; read-out: antiviral EC50, HAdV; cited from earlier work
MHV-68-Luc = MHV-68-Luc luciferase reporter assay; assay type: cell-based, murine herpesvirus 68
HCMV = system: HCMV; set-up: method as in ref 35, 38 (a number printed in a supplementary file, which may have a reference list of its own: not looked up in the article's list); settings: Table S1; read-out: antiviral EC50, HCMV; cited from earlier work
HCMV AD169-GFP = test: HCMV time-of-addition reporter assay in HFFs, AD169-GFP
EHV-1 = test: EHV-1-specific qPCR of virus release into culture medium; assay type: cell-based, equine herpesvirus 1; settings: EHV-1, read-out: EC50
ChCMV = system: ChCMV; set-up: method as in ref 35, 38 (a number printed in a supplementary file, which may have a reference list of its own: not looked up in the article's list); settings: Table S1; read-out: antiviral EC50, ChCMV; cited from earlier work
RCMV = system: RCMV; set-up: method as in ref 35, 38 (a number printed in a supplementary file, which may have a reference list of its own: not looked up in the article's list); settings: Table S1; read-out: antiviral EC50, RCMV; cited from earlier work
VZV = system: VZV; set-up: method as in ref 35, 38 (a number printed in a supplementary file, which may have a reference list of its own: not looked up in the article's list); settings: Table S1; read-out: antiviral EC50, VZV; cited from earlier work
RhCMV = system: RhCMV; set-up: method as in ref 35, 38 (a number printed in a supplementary file, which may have a reference list of its own: not looked up in the article's list); settings: Table S1; read-out: antiviral EC50, RhCMV; cited from earlier work
HCMV TB40-YFP = test: HCMV time-of-addition reporter assay in HFFs, TB40-YFP
KSHV = system: KSHV; set-up: method as in ref 35, 38 (a number printed in a supplementary file, which may have a reference list of its own: not looked up in the article's list); settings: Table S1; read-out: antiviral EC50, KSHV; cited from earlier work
SARS-CoV-2 d6-YFP = settings: for CDK8 inhibitor sensitivity of SARS-CoV-2 in Caco-2 cells: in words
vaccinia virus VV IHD-5 = test: microbe, parasite or virus in culture; assay type: cell-based; settings: read-out: antiviral EC50, VV
JCPyV = system: JCPyV; set-up: method as in ref 35, 38 (a number printed in a supplementary file, which may have a reference list of its own: not looked up in the article's list); settings: Table S1; read-out: antiviral EC50, JCPyV; cited from earlier work
HCMV Merlin-GFP = test: HCMV time-of-addition reporter assay in HFFs, Merlin-GFP
HHV-6A = system: HHV-6A; set-up: method as in ref 35 (a number printed in a supplementary file, which may have a reference list of its own: not looked up in the article's list); settings: Table S1; J-Jhan cells; read-out: antiviral EC50, HHV-6A (J-Jhan); cited from earlier work
in vitro [2] = settings: human
in vitro [3] = settings: mouse
in vitro [4] = settings: African green monkey
in vitro [5] = settings: African green monkey; remark: listed apart in the source
[6] = Neutral Red uptake cell viability assay, P3HR-1; settings: human
[7] = Table S1, read-out: antiviral EC50, EBV
[8] = read-out: Antiviral mean EC50 based on YFP measurements, SARS-CoV-2 d6-YFP, Caco-2, […]
[9] = read-out: antiviral EC50, SARS-CoV-2, Table S1

## Cn1ncc2cc(-c3cnc(N)c(Cl)c3N3CCC4(CCNC4=O)CC3)ccc21 [CCT-251921]
293T-tdTom-Luc cells
  CC50: 95300 ± 6600 nM
MCMV
  EC50: > 40 nM
[1]; [7]
  EC50: 2500 ± 1000 nM
HSV-1
  EC50: > 50000 nM
EHV-1-GFP; EHV-1, GFP / COS-7, read-out: EC50
  EC50: 100 nM
HHV-6A-GFP; read-out: antiviral EC50, HHV-6A (HFF), Table S1, HFF
  EC50: 40 ± 20 nM
Vero cells
  CC50: > 100000 nM
GPCMV
  EC50: 50 ± 80 nM
HAdV
  EC50: 30 ± 30 nM
MHV-68-Luc; Table S1, COS-7, read-out: antiviral EC50, MHV-68 (COS-7)
  EC50: 0.5 ± 0.9 nM
MHV-68-Luc; Table S1, HFF, read-out: antiviral EC50, MHV-68 (HFF)
  EC50: 500 ± 300 nM
MHV-68-Luc; Table S1, MEF, read-out: antiviral EC50, MHV-68 (MEF)
  EC50: 10 ± 9 nM
MHV-68-Luc; Table S1, Vero, read-out: antiviral EC50, MHV-68 (Vero)
  EC50: 2 ± 1 nM
HCMV
  EC50: 4 ± 2 nM
HCMV AD169-GFP; read-out: AD169-GFP EC50, drug addition 0 d p.i., readout 7 d p.i.
  EC50: 0.7 ± 0.7 nM
HCMV AD169-GFP; read-out: AD169-GFP EC50, drug addition 1 d p.i., readout 7 d p.i.
  EC50: 3.2 ± 2.6 nM
HCMV AD169-GFP; read-out: AD169-GFP EC50, drug addition 2 d p.i., readout 7 d p.i.
  EC50: 8.3 ± 7.9 nM
HCMV AD169-GFP; read-out: AD169-GFP EC50, drug addition 3 d p.i., readout 7 d p.i.
  EC50: > 50 nM
HCMV AD169-GFP; read-out: AD169-GFP EC50, drug addition 4 d p.i., readout 7 d p.i.
  EC50: > 50 nM
MEFs
  CC50: > 100000 nM
EHV-1; qPCR / HFF
  EC50: 800 nM
ChCMV
  EC50: 30 ± 20 nM
RCMV
  EC50: 20 ± 50 nM
VZV
  EC50: 28000 ± 9000 nM
RhCMV
  EC50: 3 ± 2 nM
HCMV TB40-YFP; read-out: TB40-YFP EC50, drug addition 0 d p.i., readout 7 d p.i.
  EC50: 8.7 ± 5 nM
HCMV TB40-YFP; read-out: TB40-YFP EC50, drug addition 1 d p.i., readout 7 d p.i.
  EC50: 26 ± 4 nM
HCMV TB40-YFP; read-out: TB40-YFP EC50, drug addition 2 d p.i., readout 7 d p.i.
  EC50: > 50 nM
HCMV TB40-YFP; read-out: TB40-YFP EC50, drug addition 3 d p.i., readout 7 d p.i.
  EC50: > 50 nM
HCMV TB40-YFP; read-out: TB40-YFP EC50, drug addition 4 d p.i., readout 7 d p.i.
  EC50: > 50 nM
P3HR-1 cells
  CC50: > 100000 nM
KSHV
  EC50: 300 nM
SARS-CoV-2 d6-YFP
  CDK8 inhibitor sensitivity of SARS-CoV-2 in Caco-2 cells: lack of CDK8 inhibitor sensitivity
SARS-CoV-2 d6-YFP; [8]
  EC50: ≥ 15400 nM
SARS-CoV-2 d6-YFP; [9]
  EC50: 62400 ± 18500 nM
Vaccinia virus VV IHD-5
  EC50: > 50000 nM
Caco-2 cells
  CC50: > 100000 nM
JCPyV
  EC50: 3700 ± 3000 nM
HCMV Merlin-GFP; read-out: Merlin-GFP EC50, drug addition 0 d p.i., readout 7 d p.i.
  EC50: 0.7 ± 1.3 nM
HCMV Merlin-GFP; read-out: Merlin-GFP EC50, drug addition 1 d p.i., readout 7 d p.i.
  EC50: 13 ± 8 nM
HCMV Merlin-GFP; read-out: Merlin-GFP EC50, drug addition 2 d p.i., readout 7 d p.i.
  EC50: 3.4 ± 6.8 nM
HCMV Merlin-GFP; read-out: Merlin-GFP EC50, drug addition 4 d p.i., readout 7 d p.i.
  EC50: 5.9 ± 4.9 nM
HHV-6A
  EC50: 39000 ± 21000 nM

## Nc1nc(O)c2ncn(COC(CO)CO)c2n1 [GCV, ganciclovir]
EHV-1-GFP
  EC50: 1300 ± 300 nM
EHV-1-GFP; COS-7
  EC50: 200 ± 100 nM
EHV-1-GFP; Equus caballus, Vero
  EC50: 40 ± 50 nM
HHV-6A-GFP; Human betaherpesvirus 6A, read-out: Antiviral mean EC50 based on plaque assay measurements
  EC50: 2500 ± 600 nM
MHV-68-Luc; Murine herpesvirus, MHV-68-Luc, HFF
  EC50: > 50000 nM
MHV-68-Luc; Murine herpesvirus, MHV-68-Luc, MEF
  EC50: 9400 ± 6300 nM
MHV-68-Luc; Murine herpesvirus, Vero, MHV-68-Luc
  EC50: 900 ± 700 nM
In vitro [2]; CC50
  CC50: > 50000 nM
In vitro [2]; mean CC50
  CC50: > 100000 nM
In vitro [3]
  CC50 at 7 d: > 100000 nM
In vitro [4]
  CC50 at 7 d: > 100000 nM
In vitro [5]
  CC50 at 4 d: > 100000 nM

## Cc1n[nH]c2ncc(C(=O)N3CCC[C@H]3c3ccc(Cl)cc3)cc12 [MSC-2530818]
293T-tdTom-Luc cells
  CC50: > 100000 nM
MCMV
  EC50: 20 ± 20 nM
[1]; [7]
  EC50: 1400 ± 600 nM
HSV-1
  EC50: 42300 ± 4900 nM
HHV-6A-GFP; read-out: Antiviral mean EC50 based on plaque assay measurements, HHV-6A, HFF
  EC50: 200 ± 400 nM
Vero cells
  CC50: > 100000 nM
GPCMV
  EC50: 30 ± 50 nM
HAdV
  EC50: 300 ± 300 nM
HCMV
  EC50: 1 ± 0.7 nM
MEFs
  CC50: > 100000 nM
EHV-1; qPCR / COS-7
  EC50: 700 ± 900 nM
EHV-1; qPCR / HFF
  EC50: 80 ± 200 nM
ChCMV
  EC50: 20 ± 30 nM
RCMV
  EC50: 3 ± 8 nM
VZV
  EC50: > 50000 nM
RhCMV
  EC50: 2 ± 1 nM
P3HR-1 cells
  CC50: > 100000 nM
KSHV
  EC50: > 40000 nM
SARS-CoV-2 d6-YFP
  CDK8 inhibitor sensitivity of SARS-CoV-2 in Caco-2 cells: low level of sensitivity
SARS-CoV-2 d6-YFP; [8]
  EC50: ≥ 15400 nM
SARS-CoV-2 d6-YFP; [9]
  EC50: 15400 ± 6400 nM
Vaccinia virus VV IHD-5
  EC50: > 50000 nM
Caco-2 cells
  CC50: > 100000 nM
HHV-6A
  EC50: > 50000 nM

## CC(C)OC(=O)[C@H](C)N[P@](=O)(CO[C@H](C)Cn1cnc2c(N)ncnc21)Oc1ccccc1 [TAF, tenofovir alafenamide]
[1]; human gammaherpesvirus 4, P3HR-1, 240 h, read-out: Antiviral mean EC50 based on qPCR measurements
  EC50: 1800 nM
[6]
  CC50 at 10 d: > 100000 nM
